Where “and” joins values, the source holds several entries; their conditions need not be identical. Equal entries are not always repeated. Where two headings read alike, the source gives them in different places.

One test relates to T. brucei. The test is described as follows: Growth inhibition assay of T. brucei cell cultures (Alamar Blue, 48 h). The test is classed as cell-based. In general terms: The colour change of resazurin is a common sign of viable cells or microbes.
In the next test the target is MetRS (S. aureus) (Staphylococcus aureus, UniProt Q5HII6). The test is described as follows: biochemical. Conditions: ATP depletion, Kinase-Glo; read-out: H) MetRS (S. aureus) ATP depletion assay using Kinase-Glo with modified cpd dilution method, IC50. For orientation: Kinase-Glo measures the ATP left after a reaction by luminescence.
MetRS (S. aureus), sequence (Q5HII6 whole entry): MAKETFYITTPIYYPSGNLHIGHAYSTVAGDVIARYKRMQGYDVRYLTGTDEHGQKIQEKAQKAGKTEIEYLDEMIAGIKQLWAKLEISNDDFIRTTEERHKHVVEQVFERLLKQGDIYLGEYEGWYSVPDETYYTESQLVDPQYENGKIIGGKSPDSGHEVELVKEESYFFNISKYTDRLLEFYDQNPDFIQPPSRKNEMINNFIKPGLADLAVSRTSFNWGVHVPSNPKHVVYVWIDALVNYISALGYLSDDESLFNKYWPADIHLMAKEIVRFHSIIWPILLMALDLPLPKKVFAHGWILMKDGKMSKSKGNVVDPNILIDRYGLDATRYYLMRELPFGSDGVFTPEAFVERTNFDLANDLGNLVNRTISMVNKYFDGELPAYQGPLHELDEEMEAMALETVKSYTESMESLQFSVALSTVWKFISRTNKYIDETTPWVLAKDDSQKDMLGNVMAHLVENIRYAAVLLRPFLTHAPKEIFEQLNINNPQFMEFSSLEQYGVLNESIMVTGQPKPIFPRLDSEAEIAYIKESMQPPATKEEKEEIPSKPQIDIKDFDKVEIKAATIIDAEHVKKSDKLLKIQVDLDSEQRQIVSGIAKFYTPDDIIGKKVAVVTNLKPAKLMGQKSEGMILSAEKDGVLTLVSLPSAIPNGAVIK
For another test, the target named is MetRS (T. brucei) (Trypanosoma brucei brucei, UniProt Q38C91). Nature of the test: MetRS (T. brucei) ATP depletion assay using Kinase-Glo. The test is classed as biochemical.
MetRS (T. brucei), sequence (Q38C91 entry or part of it): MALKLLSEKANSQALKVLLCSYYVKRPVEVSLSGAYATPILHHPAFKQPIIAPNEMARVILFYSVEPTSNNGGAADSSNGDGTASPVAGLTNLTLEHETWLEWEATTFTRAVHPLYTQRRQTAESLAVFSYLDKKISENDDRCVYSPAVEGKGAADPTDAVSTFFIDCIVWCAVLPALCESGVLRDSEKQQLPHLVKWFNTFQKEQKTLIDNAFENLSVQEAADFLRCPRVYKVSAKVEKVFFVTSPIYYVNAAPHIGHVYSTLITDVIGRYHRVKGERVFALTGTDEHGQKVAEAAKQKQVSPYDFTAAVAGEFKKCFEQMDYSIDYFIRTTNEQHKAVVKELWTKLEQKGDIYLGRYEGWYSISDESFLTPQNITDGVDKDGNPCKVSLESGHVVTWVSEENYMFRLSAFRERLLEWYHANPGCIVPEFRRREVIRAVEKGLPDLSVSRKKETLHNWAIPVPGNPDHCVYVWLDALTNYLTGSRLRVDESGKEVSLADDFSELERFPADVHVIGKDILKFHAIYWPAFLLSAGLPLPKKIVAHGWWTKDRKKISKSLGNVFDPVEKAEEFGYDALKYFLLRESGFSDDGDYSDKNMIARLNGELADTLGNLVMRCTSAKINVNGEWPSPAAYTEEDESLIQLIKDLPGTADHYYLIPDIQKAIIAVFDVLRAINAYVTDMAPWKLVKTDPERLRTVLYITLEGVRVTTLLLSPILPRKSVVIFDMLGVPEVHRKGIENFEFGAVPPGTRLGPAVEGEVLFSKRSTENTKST
The mark [1] stands for this setting: Trypanosoma brucei; read-out: B) T. brucei EC50.

As usually defined, the EC50 is the concentration needed to bring the measured effect to its halfway point. Usually IC50 stands for the concentration that inhibits the measured activity by half. On to `O=C(CCOc1ccc(Cl)cc1Cl)NCc1nc2ccc(F)nc2[nH]1` [Compound 1705, 3-(2,4-dichlorophenoxy)-N-({5-fluoro-3H-imidazo[4,5-b]pyridin-2-yl}methyl)propanamide], for which, in the test on T. brucei (setting [1]), the EC50 was 8840 nM. The figures for the IC50 at MetRS (S. aureus) and against MetRS (T. brucei) were 1690 nM and 100 nM, respectively.
As to `O=C(NCc1nc2cccnc2[nH]1)OCCc1ccc(Cl)cc1Cl` [Compound 1706, 2-(2,4-dichlorophenyl)ethyl N-{3H-imidazo[4,5-b]pyridin-2-ylmethyl}carbamate], in the test on T. brucei (setting [1]), the concentration giving a half-maximal response (EC50) was determined as 2760 nM. The IC50 was found to be 83 nM at MetRS (S. aureus) and 38 nM on MetRS (T. brucei).
In the case of `CC(=O)N(CCCc1nc2ccc(Cl)nc2[nH]1)Cc1cc(Cl)cc(Cl)c1` [Compound 1895, N-(3-(5-chloro-1H-imidazo[4,5-b]pyridin-2-yl)propyl)-N-(3,5-dichlorobenzyl)acetamide], in the test on T. brucei (setting [1]), the EC50 was determined as 569 nM. Moreover, the IC50 was determined as 445 nM at MetRS (S. aureus) and 17 nM on MetRS (T. brucei).
On to `CC(=O)N(CCNc1nc2nc(F)ccc2[nH]1)Cc1cc(Cl)cc(Cl)c1` [Compound 1897, N-(3,5-dichlorobenzyl)-N-(2-((5-fluoro-1H-imidazo[4,5-b]pyridin-2-yl)amino)ethyl) acetamide], for which the 50% effective concentration (EC50) with T. brucei (setting [1]) was 653 nM. The values for the half-maximal inhibitory concentration (IC50) at MetRS (S. aureus) and on MetRS (T. brucei) were 606 nM and 16 nM, respectively.
For `Clc1ccc2[nH]c(N3CCC[C@H](NCc4cc(Br)cc(Br)c4)C3)nc2n1` [Compound 1908, (S)-1-(5-chloro-1H-imidazo[4,5-b]pyridin-2-yl)-N-(3,5-dibromobenzyl) piperidin-3-amine], in that order: 85.2 nM, 155 nM and 15 nM.
Take `CC(=O)N(CCN(C)c1nc2nc(F)ccc2[nH]1)Cc1cc(Cl)cc(Cl)c1` [Compound 1914, N-[(3,5-dichlorophenyl)methyl]-N-[2-({5-fluoro-1H-imidazo[4,5-b]pyridin-2-yl}(methyl)amino)ethyl]acetamide]: the 50% effective concentration (EC50) in the test with T. brucei (setting [1]) was determined as 252 nM. Moreover, the IC50 at MetRS (S. aureus) worked out at 303 nM; against MetRS (T. brucei), 18 nM.
Take `Oc1c(Cl)cc(Cl)cc1CN[C@H]1CCCN(c2nc3nc(Cl)ccc3[nH]2)C1` [Compound 1921]: the EC50 with T. brucei (setting [1]) was found to be 241 nM. Further, the IC50 on MetRS (S. aureus) is 1570 nM; against MetRS (T. brucei), 25 nM.
As for `Clc1cc(Cl)cc(NC[C@@H]2CCCN(c3nc4nc(Cl)ccc4[nH]3)C2)c1` [Compound 1923, (S)-3,5-dichloro-N-((1-(5-chloro-1H-imidazo[4,5-b]pyridin-2-yl)piperidin-3-yl)methyl)aniline], the EC50 with T. brucei (setting [1]) came to 566 nM. Moreover, the IC50 was determined as 504 nM on MetRS (S. aureus) and 32 nM on MetRS (T. brucei).
For the compound `CCOc1c(Cl)cc(Cl)cc1CNCCN(C)c1nc2nc(Cl)ccc2[nH]1` [Compound 1925, 5-chloro-N-(2-{[(3,5-dichloro-2-ethoxyphenyl)methyl]amino}ethyl)-N-methyl-3H-imidazo[4,5-b]pyridin-2-amine], in the test on T. brucei (setting [1]), the EC50 amounted to 314 nM. Also, the IC50 on MetRS (S. aureus) turned out to be 266 nM; at MetRS (T. brucei), 15 nM.
For `CCC(=O)N(CCN(C)c1nc2nc(Cl)ccc2[nH]1)Cc1cc(Cl)cc(Cl)c1` [Compound 1942, N-(3,5-dichlorobenzyl)-N-(2-(5-chloro-N-methyl-1H-imidazo[4,5-b]pyridin-2-ylamino)ethyl)propionamide], the concentration for a half-maximal effect (EC50) in the test with T. brucei (setting [1]) is 145 nM. Also, the results for the half-maximal inhibitory concentration (IC50) at MetRS (S. aureus) and against MetRS (T. brucei) were 104 nM and 20 nM, respectively.
In the case of `COc1ccc(Oc2cc(NCc3nc4ccccc4[nH]3)ccn2)c(Cl)c1` [Compound 1950, N-(1H-1,3-benzodiazol-2-ylmethyl)-2-(2-chloro-4-methoxyphenoxy)pyridin-4-amine], the 50% inhibitory concentration (IC50) at MetRS (S. aureus) is 797 nM; against MetRS (T. brucei) it was 50 nM.
As to `O=C(Nc1cccc(-c2nc3ccc(Cl)cc3[nH]2)c1)c1cc(Cl)cc(Cl)c1` [Compound 1953, 3,5-dichloro-N-[3-(6-chloro-1H-1,3-benzodiazol-2-yl)phenyl]benzamide], the EC50 was found to be 903 nM with T. brucei (setting [1]) and 812 nM with T. brucei (read-out: B) T. brucei EC50). The same compound showed a concentration for half-maximal inhibition (IC50) at MetRS (T. brucei) of more than 10000 nM.
As for `Fc1ccc2nc(NCCCNc3cc(Cl)cc(Cl)c3)[nH]c2n1` [Compound 1954, 3,5-dichloro-N-[3-({5-fluoro-3H-imidazo[4,5-b]pyridin-2-yl}amino)propyl]aniline], the EC50 was 369 nM with T. brucei (setting [1]) and 565 nM in the test on T. brucei (read-out: B) T. brucei EC50). Besides, the IC50 on MetRS (S. aureus) was determined as 928 nM; at MetRS (T. brucei) it was 61 nM.
For the compound `CCN(Cc1cc(Cl)cc(Cl)c1)[C@H]1CCCN(c2nc3ccc(Cl)nc3[nH]2)C1` [Compound 1955, (S)-1-(5-chloro-1H-imidazo[4,5-b]pyridin-2-yl)-N-(3,5-dichlorobenzyl)-N-ethylpiperidin-3-amine], in the test on T. brucei (setting [1]), the concentration for a half-maximal effect (EC50) was determined as 1740 nM. Also, the IC50 against MetRS (T. brucei) came to 286 nM.
As to `Fc1ccc2nc(NCCCNc3ccc(Cl)cc3Cl)[nH]c2n1` [Compound 1956, N1-(2,4-dichlorophenyl)-N3-(5-fluoro-3H-imidazo[4,5-b]pyridin-2-yl)propane-1,3-diamine], in the test with T. brucei (setting [1]), the concentration for a half-maximal effect (EC50) turned out to be 1550 nM. This compound returned a concentration for half-maximal inhibition (IC50) at MetRS (T. brucei) of 325 nM.
Consider `CN(CCN(Cc1cc(Cl)cc(Cl)c1)C(=O)CN)c1nc2nc(Cl)ccc2[nH]1` [Compound 1957, 2-amino-N-[2-({5-chloro-1H-imidazo[4,5-b]pyridin-2-yl}(methyl)amino)ethyl]-N-[(3,5-dichlorophenyl)methyl]acetamide], for which the IC50 at MetRS (S. aureus) amounted to 424 nM; against MetRS (T. brucei), 11 nM.
`CN(CCN(Cc1cc(Cl)cc(Cl)c1)C(=O)CCN)c1nc2nc(Cl)ccc2[nH]1` [Compound 1958, 3-amino-N-[2-({5-chloro-1H-imidazo[4,5-b]pyridin-2-yl}(methyl)amino)ethyl]-N-[(3,5-dichlorophenyl)methyl]propanamide]: the concentration for a half-maximal effect (EC50) is 62.4 nM in the test with T. brucei (setting [1]) and 33.1 nM in the test on T. brucei (read-out: B) T. brucei EC50). Besides, the 50% inhibitory concentration (IC50) at MetRS (S. aureus) was 381 nM; on MetRS (T. brucei), 13 nM.
As to `CC(=O)N(CCCNc1nc2ccc(F)nc2[nH]1)Cc1cc(Cl)cc(Cl)c1` [Compound 1959, N-(3,5-dichlorobenzyl)-N-(3-(5-fluoro-3H-imidazo[4,5-b]pyridin-2-ylamino)propyl)acetamide], the values for the concentration for a half-maximal effect (EC50) with T. brucei (setting [1]) and with T. brucei (read-out: B) T. brucei EC50) were 39.3 nM and 51.1 nM, respectively. Also, the values for the half-inhibitory concentration (IC50) at MetRS (S. aureus) and on MetRS (T. brucei) were 12 nM and 16 nM, respectively.
As to `COc1ccc(Oc2ccnc(NCc3nc4ccc(F)nc4[nH]3)c2)c(Cl)c1` [Compound 1960, 4-(2-chloro-4-methoxyphenoxy)-N-({5-fluoro-3H-imidazo[4,5-b]pyridin-2-yl}methyl)pyridin-2-amine], the IC50 on MetRS (S. aureus) is 12 nM; at MetRS (T. brucei), 21 nM.
Take `Clc1cc(Cl)cc(CN[C@H]2CCCN(C3=NCc4ccccc4N3)C2)c1` [Compound 1961]: the concentration giving a half-maximal response (EC50) in the test with T. brucei (setting [1]) was found to be 3760 nM. The compound also had an IC50 at MetRS (T. brucei) of 121 nM.
As for `O=c1[nH]c(Cc2ccc(Cl)cc2Cl)cn1Cc1nc2ccc(F)nc2[nH]1` [Compound 1962, 5-(2,4-dichlorobenzyl)-3-((5-fluoro-3H-imidazo[4,5-b]pyridin-2-yl)methyl)-1H-imidazol-2(3H)-one], the EC50 in the test with T. brucei (setting [1]) was found to be 12.9 nM. Also, the 50% inhibitory concentration (IC50) at MetRS (S. aureus) is 17 nM; against MetRS (T. brucei) it was 19 nM.
Turning to `COC(=O)N(CCN(C)c1nc2nc(Cl)ccc2[nH]1)Cc1cc(Cl)cc(Cl)c1` [Compound 1963, methyl 3,5-dichlorobenzyl2-(5-chloro-N-methyl-1H-imidazo[4,5-b]pyridin-2-ylamino)ethylcarbamate], the concentration for a half-maximal effect (EC50) with T. brucei (setting [1]) was found to be 97.4 nM. The IC50 at MetRS (S. aureus) worked out at 348 nM; against MetRS (T. brucei) it was 21 nM.
Turning to `COC(=O)N(CCCNc1nc2ccc(F)nc2[nH]1)Cc1cc(Cl)cc(Cl)c1` [Compound 1964, methyl 3,5-dichlorobenzyl3-(5-fluoro-3H-imidazo[4,5-b]pyridin-2-ylamino)propylcarbamate], the EC50 in the test on T. brucei (setting [1]) worked out at 36.6 nM. For the same compound, on MetRS (T. brucei), the IC50 amounted to 17 nM.
In the case of `COC(=O)N(CCCNc1nc2ccc(F)nc2n1C(=O)OC)Cc1cc(Cl)cc(Cl)c1` [Compound 1965, methyl 3,5-dichlorobenzyl3-(3-(methoxycarbonyl)-5-fluoro-3H-imidazo[4,5-b]pyridin-2-ylamino)propylcarbamate], the EC50 in the test with T. brucei (setting [1]) came to 96.2 nM. The half-maximal inhibitory concentration (IC50) against MetRS (T. brucei) was 345 nM and 322 nM.
Consider `CCC(=O)NC(CC(=O)NCc1cc(Cl)cc(Cl)c1)c1nc2ccc(Cl)nc2[nH]1` (stereo not shown) [Compound 1968, 3-{5-chloro-3H-imidazo[4,5-b]pyridin-2-yl}-N-[(3,5-dichlorophenyl)methyl]-3-propanamidopropanamide], for which the EC50 with T. brucei (setting [1]) was more than 20000 nM. The compound further yielded an IC50 against MetRS (T. brucei) of 1860 nM.
Regarding `NC(CC(=O)NCc1cc(Cl)cc(Cl)c1)c1nc2ccc(Cl)nc2[nH]1` (stereo not shown) [Compound 1969, 3-amino-3-(5-chloro-3H-imidazo[4,5-b]pyridin-2-yl)-N-(3,5-dichlorobenzyl)propanamide], the concentration giving a half-maximal response (EC50) in the test on T. brucei (setting [1]) stood at 7960 nM. On MetRS (T. brucei), 782 nM corresponded to half-maximal inhibition (IC50).
For `CN(CCN(Cc1cc(Cl)cc(Cl)c1)C(N)=O)c1nc2ccc(Cl)nc2[nH]1` [Compound 1972, 1-(3,5-dichlorobenzyl)-1-(2-(5-chloro-N-methyl-1H-imidazo[4,5-b]pyridin-2-ylamino)ethyl)urea], the concentration for half-maximal inhibition (IC50) on MetRS (S. aureus) was 140 nM; against MetRS (T. brucei) it was 27 nM.
Take `O=C(CNc1cc(Cl)cc(Cl)c1)NCc1nc2ccc(Cl)nc2[nH]1` [Compound 1990, N-({5-chloro-3H-imidazo[4,5-b]pyridin-2-yl}methyl)-2-[(3,5-dichlorophenyl)amino]acetamide]: the concentration giving a half-maximal response (EC50) in the test on T. brucei (setting [1]) was 2040 nM. For the same compound, half-maximal inhibition against MetRS (T. brucei) (IC50) required 17 nM.
The like results for `O=C(NCc1cc(Cl)cc(Cl)c1)NCc1nc2ccc(Cl)nc2[nH]1` [Compound 1991, 3-({5-chloro-3H-imidazo[4,5-b]pyridin-2-yl}methyl)-1-[(3,5-dichlorophenyl)methyl]urea] were, in that order, 2070 nM and 18 nM.
The like results for `Clc1cc(Cl)cc(NCCNCc2nc3ccc(Cl)nc3[nH]2)c1` [Compound 1994, ({5-chloro-3H-imidazo[4,5-b]pyridin-2-yl}methyl)({2-[(3,5-dichlorophenyl)amino]ethyl})amine] were, in that order, 1410 nM and 59 nM.

(Values after patent publication US10913736B2 (UNIVERSITY OF WASHINGTON, priority 2014, dated 2021).)
